# Measured values as given in ChEMBL document CHEMBL4138253, “Synthesis and Biological Evaluation of a Series of Bile Acid Derivatives as FXR Agonists for Treatment of NASH” (ACS Med Chem Lett, 2017).
# Columns and labels:
# [1] = target: T1, Bile acid receptor (Homo sapiens) (UniProt Q96RI1); experiment: (§1) Agonist activity at human FXR assessed as recruitment of SRC1 peptide by TR-FRET assay
# T1 sequence (whole entry): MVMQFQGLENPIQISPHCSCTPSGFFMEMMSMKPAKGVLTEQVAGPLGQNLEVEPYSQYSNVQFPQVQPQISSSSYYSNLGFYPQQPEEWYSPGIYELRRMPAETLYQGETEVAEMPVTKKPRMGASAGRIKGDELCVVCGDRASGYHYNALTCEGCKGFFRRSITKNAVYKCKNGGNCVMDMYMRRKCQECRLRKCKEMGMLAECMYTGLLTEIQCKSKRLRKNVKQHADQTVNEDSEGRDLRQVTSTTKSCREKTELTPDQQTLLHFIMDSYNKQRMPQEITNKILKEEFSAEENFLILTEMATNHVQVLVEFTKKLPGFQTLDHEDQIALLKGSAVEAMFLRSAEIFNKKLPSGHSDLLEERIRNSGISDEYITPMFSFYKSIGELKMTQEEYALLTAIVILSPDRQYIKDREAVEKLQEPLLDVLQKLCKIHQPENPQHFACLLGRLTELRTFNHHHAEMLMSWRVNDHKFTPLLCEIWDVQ
# Bile acid receptor [2] = target: T2, Bile acid receptor (Homo sapiens, UniProt Q96RI1); experiment: as §1
# T2 sequence (Q96RI1 whole entry): T1 sequence (whole entry)
# [3] = target: T3, G-protein coupled bile acid receptor 1 (Homo sapiens, UniProt Q8TDU6); experiment: Agonist activity at human TGR5 expressed in HEK293 cells assessed as increase in intracellular cAMP level after 1 hr by TR-FRET assay; format: functional, cell-based
# T3 sequence (Q8TDU6 whole entry): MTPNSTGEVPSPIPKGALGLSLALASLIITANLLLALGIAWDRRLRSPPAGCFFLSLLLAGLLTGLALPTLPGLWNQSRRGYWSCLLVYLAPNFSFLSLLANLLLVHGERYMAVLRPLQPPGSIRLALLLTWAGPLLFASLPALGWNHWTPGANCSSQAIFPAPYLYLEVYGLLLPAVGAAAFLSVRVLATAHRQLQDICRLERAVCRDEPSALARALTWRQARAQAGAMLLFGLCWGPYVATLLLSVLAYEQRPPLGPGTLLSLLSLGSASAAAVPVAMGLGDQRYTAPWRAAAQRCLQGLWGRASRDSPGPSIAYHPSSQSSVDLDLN
# [4] = AUC in C57BL/6 mouse at 10 mg/kg, po administered via gavage; format: ADME, organism-based; details: in vivo
# [5] = Drug level in C57BL/6 mouse liver at 10 mg/kg, po administered as single dose via gavage measured at 0.5 hrs post dose by LC-MS/MS analysis; format: ADME, organism-based; details: in vivo
# [6] = Drug level in C57BL/6 mouse plasma at 2 mg/kg, po administered as single dose via gavage measured at 0.5 hrs post dose by LC-MS/MS analysis; format: ADME, organism-based
# Bile acid receptor [7] = target: T2, Bile acid receptor; experiment: Agonist activity at recombinant human Gal4-fused FXR expressed in CHO cells measured after 22 hrs by luciferase reporter gene assay; format: cell-based
# Mus musculus [8] = experiment: Tmax in C57BL/6 mouse assessed as tauro-INT-747 level at 10 mg/kg, po administered via gavage; format: ADME, organism-based; details: in vivo
# [9] = Drug level in C57BL/6 mouse liver at 2 mg/kg, po administered as single cassette dose via gavage measured at 0.5 hrs post dose by LC-MS/MS analysis; format: ADME, organism-based; details: in vivo
# [10] = Ratio of drug level in C57BL/6 mouse liver to plasma at 10 mg/kg, po administered as single dose via gavage measured at 3 hrs post dose by LC-MS/MS analysis; format: ADME, organism-based
# Mus musculus [11] = experiment: AUC in C57BL/6 mouse assessed as tauro-INT-747 level at 10 mg/kg, po administered via gavage; format: ADME, organism-based; details: in vivo
# Mus musculus [12] = experiment: Tmax in C57BL/6 mouse assessed as INT-747 level at 10 mg/kg, po administered via gavage; format: ADME, organism-based; details: in vivo
# [13] = Ratio of drug level in C57BL/6 mouse liver to plasma at 10 mg/kg, po administered as single dose via gavage measured at 0.5 hrs post dose by LC-MS/MS analysis; format: ADME, organism-based
# Mus musculus [14] = experiment: AUC in C57BL/6 mouse assessed as glyco-INT-747 level at 10 mg/kg, po administered via gavage; format: ADME, organism-based; details: in vivo, BLD = below limit of detection
# Mus musculus [15] = experiment: Cmax in C57BL/6 mouse assessed as INT-747 level at 10 mg/kg, po administered via gavage; format: ADME, organism-based; design: dose 10 mg/kg, route oral; details: in vivo
# Homo sapiens = organism: Homo sapiens; experiment: Selectivity ratio of EC50 for recombinant human GST-tagged FXR LBD (193 to 472 residues) expressed in baculovirus-infected insect cells to EC50 for human TGR5 expressed in HEK293 cells
# [16] = Tmax in C57BL/6 mouse at 10 mg/kg, po administered via gavage; format: ADME, organism-based; details: in vivo
# Mus musculus [17] = experiment: Cmax in C57BL/6 mouse assessed as tauro-INT-747 level at 10 mg/kg, po administered via gavage; format: ADME, organism-based; design: dose 10 mg/kg, route oral; details: in vivo
# [18] = Drug level in C57BL/6 mouse liver at 10 mg/kg, po administered as single dose via gavage measured at 3 hrs post dose by LC-MS/MS analysis; format: ADME, organism-based; details: in vivo
# [19] = Cmax in C57BL/6 mouse at 10 mg/kg, po administered via gavage; format: ADME, organism-based; design: dose 10 mg/kg, route oral; details: in vivo
# Mus musculus [20] = experiment: Anti-hepatic steatosis activity in HFD/CCl4-induced non-alcoholic hepatic steatosis C57BL/6 mouse model assessed as reduction in liver fibrosis administered once daily via oral gavage for 28 days measured at post last dose by sirus red staining based assay; format: ADME, organism-based; details: in vivo, 672 h
# Mus musculus [21] = experiment: Anti-hepatic steatosis activity in HFD/CCl4-induced non-alcoholic hepatic steatosis C57BL/6 mouse model assessed as reduction in triglyceride level administered once daily via oral gavage for 28 days measured at post last dose by […] assay; format: ADME, organism-based; details: in vivo, 672 h
# [22] = Drug level in C57BL/6 mouse liver at 2 mg/kg, po administered as single cassette dose via gavage measured at 3 hrs post dose by LC-MS/MS analysis; format: ADME, organism-based; details: in vivo
# Mus musculus [23] = experiment: AUC in C57BL/6 mouse assessed as INT-747 level at 10 mg/kg, po administered via gavage; format: ADME, organism-based; details: in vivo
# [24] = Drug metabolism in C57BL/6 mouse assessed as ratio of INT-747 level in liver to plasma at 10 mg/kg, po administered as single dose via gavage measured at 0.5 hrs post dose by LC-MS/MS analysis; format: ADME, organism-based; details: other tissue
# [25] = Drug level in C57BL/6 mouse plasma at 10 mg/kg, po administered as single dose via gavage measured at 3 hrs post dose by LC-MS/MS analysis; format: ADME, organism-based
# Mus musculus [26] = experiment: Cmax in C57BL/6 mouse assessed as glyco-INT-747 level at 10 mg/kg, po administered via gavage; format: ADME, organism-based; design: dose 10 mg/kg, route oral; details: in vivo, BLD = below limit of detection
# [27] = Drug level in C57BL/6 mouse plasma at 10 mg/kg, po administered as single dose via gavage measured at 0.5 hrs post dose by LC-MS/MS analysis; format: ADME, organism-based
# [28] = Drug metabolism in C57BL/6 mouse plasma assessed as INT-747 level at 10 mg/kg, po administered as single dose via gavage measured at 3 hrs post dose by LC-MS/MS analysis; format: ADME, organism-based; details: in vivo
# [29] = target: T1, Bile acid receptor (Homo sapiens); experiment: Agonist activity at recombinant human Gal4-fused FXR expressed in CHO cells measured after 22 hrs by luciferase reporter gene assay relative to CDCA; format: cell-based
# [30] = Drug level in C57BL/6 mouse plasma at 2 mg/kg, po administered as single cassette dose via gavage measured at 3 hrs post dose by LC-MS/MS analysis; format: ADME, organism-based
# [31] = Ratio of drug level in liver to plasma in C57BL/6 mouse at 2 mg/kg, po administered as single cassette dose via gavage measured at 3 hrs post dose; format: ADME, organism-based
# [32] = Ratio of drug level in liver to plasma in C57BL/6 mouse at 2 mg/kg, po administered as single cassette dose via gavage measured at 0.5 hrs post dose; format: ADME, organism-based
# Mus musculus [33] = experiment: Anti-hepatic steatosis activity in HFD/CCl4-induced non-alcoholic hepatic steatosis C57BL/6 mouse model assessed as reduction in hepatic steatosis score administered once daily via oral gavage for 28 days measured at post last dose by hematoxylin-eosin staining based assay; format: ADME, organism-based; details: in vivo, 672 h
# [34] = Drug metabolism in C57BL/6 mouse liver assessed as INT-747 level at 10 mg/kg, po administered as single dose via gavage measured at 3 hrs post dose by LC-MS/MS analysis; format: ADME, organism-based; details: in vivo
# [35] = Drug metabolism in C57BL/6 mouse liver assessed as INT-747 level at 10 mg/kg, po administered as single dose via gavage measured at 0.5 hrs post dose by LC-MS/MS analysis; format: ADME, organism-based; details: in vivo
# [36] = Drug metabolism in C57BL/6 mouse assessed as ratio of INT-747 level in liver to plasma at 10 mg/kg, po administered as single dose via gavage measured at 3 hrs post dose by LC-MS/MS analysis; format: ADME, organism-based; details: other tissue
# Mus musculus [37] = experiment: Anti-hepatic steatosis activity in HFD/CCl4-induced non-alcoholic hepatic steatosis C57BL/6 mouse model assessed as reduction in hepatic steatosis score at 30 mg/kg, po administered once daily via gavage for 28 days measured at post last dose by hematoxylin-eosin staining based assay; format: ADME, organism-based; details: in vivo, 672 h
# Mus musculus [38] = experiment: Anti-hepatic steatosis activity in HFD/CCl4-induced non-alcoholic hepatic steatosis C57BL/6 mouse model assessed as reduction in triglyceride level at 30 mg/kg, po administered once daily via gavage for 28 days measured at post last dose by […] assay; format: ADME, organism-based; details: in vivo, 672 h
# Mus musculus [39] = experiment: Anti-hepatic steatosis activity in HFD/CCl4-induced non-alcoholic hepatic steatosis C57BL/6 mouse model assessed as reduction in liver fibrosis at 30 mg/kg, po administered once daily via gavage for 28 days measured at post last dose by sirus red staining based assay; format: ADME, organism-based; details: in vivo, 672 h
Compound,AUC [4] [µM·h],Drug uptake [5] [nmol/kg],concentration at 0.5 h [6] [nM],Tmax (Mus musculus [8]) [min],Drug uptake [9] [nmol/kg],AUC (Mus musculus [11]) [µM·h],AUC (Mus musculus [14]),Tmax [16] [min],Cmax (Mus musculus [17]) [nM],Drug uptake [18] [nmol/kg],Cmax [19] [nM],Drug uptake [22] [nmol/kg],concentration at 3 h [25] [nM],Cmax (Mus musculus [26]),concentration at 0.5 h [27] [nM],concentration at 3 h [30] [nM],also measured
C[C@H](CCn1oc(=O)[nH]c1=O)[C@H]1CC[C@H]2[C@@H]3[C@H](O)C[C@@H]4C[C@H](O)CC[C@]4(C)[C@H]3CC[C@]12C,–,–,–,–,–,–,–,–,–,–,–,–,–,–,–,–,Efficacy [1]: 111%; EC50 (Bile acid receptor [2]): 1220 nM
CC[C@H]1[C@@H](O)[C@@H]2[C@H](CC[C@]3(C)[C@@H]([C@H](C)CCC(=O)NS(C)(=O)=O)CC[C@@H]23)[C@@]2(C)CC[C@@H](O)C[C@@H]12,1.19,27920,136,480,7183,5.416,Bld,30,270,15560,610,1361,298,Bld,388,15,EC50 [3]: 700 nM; EC50 (Bile acid receptor [7]): 50 nM; Kp at 3 h [10]: 52; Tmax (Mus musculus [12]): 30 min; Kp at 0.5 h [13]: 53; Cmax (Mus musculus [15]): 446 nM; Ratio EC50 (Homo sapiens): 14; Activity (Mus musculus [20]): Dose-dependent effect; Activity (Mus musculus [21]): Dose-dependent effect; AUC (Mus musculus [23]): 0.216 µM·h; Ratio [24]: 21; concentration [28]: 126 nM; Efficacy [29]: 191%; Kp at 3 h [31]: 124; Kp at 0.5 h [32]: 53; Activity (Mus musculus [33]): Dose-dependent effect; Drug uptake [34]: 1486 nmol/kg; Drug uptake [35]: 2863 nmol/kg; Ratio [36]: 12
CC[C@H]1[C@@H](O)[C@@H]2[C@H](CC[C@]3(C)[C@@H]([C@H](C)CCC(=O)O)CC[C@@H]23)[C@@]2(C)CC[C@@H](O)C[C@@H]12 [OBETICHOLIC ACID],0.713,1723,151,480,711,18.059,Bld,15,838,111,1540,625,10,Bld,478,64,Activity (Mus musculus [37]): Active; Activity (Mus musculus [38]): Active; Activity (Mus musculus [39]): Active
